Experimental data from patent US6429312B2, “N-aminoalkyldibenzothiopencarboxamide receptor subtype specific ligands” (Neurogen Corporation, priority 1996, dated 2002).
Counter-ions that a name gives are not always drawn. Like-named read-outs stand apart in the source and are kept apart here.

Legend:
D3 receptors = molecular target: T1, D3 receptors (Chlorocebus aethiops, UniProt P52703); experiment: D3 receptor binding assay (3H-YM 09151-2 displacement); parameters: species or system African Green monkey
T1 construct: expressed in transfected cells; host or cells: COS cells
T1 sequence (P52703 whole entry): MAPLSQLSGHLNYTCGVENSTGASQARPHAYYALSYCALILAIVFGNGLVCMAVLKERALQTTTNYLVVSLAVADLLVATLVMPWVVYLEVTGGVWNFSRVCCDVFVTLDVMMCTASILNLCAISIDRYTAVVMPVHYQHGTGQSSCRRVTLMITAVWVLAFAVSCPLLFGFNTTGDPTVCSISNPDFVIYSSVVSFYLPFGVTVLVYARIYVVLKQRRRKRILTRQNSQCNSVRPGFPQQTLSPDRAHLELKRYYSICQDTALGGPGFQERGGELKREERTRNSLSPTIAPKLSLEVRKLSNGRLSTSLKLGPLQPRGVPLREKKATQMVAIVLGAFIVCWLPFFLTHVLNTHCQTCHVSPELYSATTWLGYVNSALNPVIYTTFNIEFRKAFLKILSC
Experimental: (§1) ASSAY FOR D2 AND D3 RECEPTOR BINDING ACTIVITY
(§2) Pellets of COS cells containing recombinantly produced D2 or D3 receptors from African Green monkey were used for the assays. The sample is homogenized in 100 volumes (w/vol) of 0.05 M Tris HCl buffer at 4° C. and pH 7.4. The sample is then centrifuged at 30,000×g and resuspended and rehomogenized. The sample is then centrifuged as described and the final tissue sample is frozen until use. The tissue is resuspended 1:20 (wt/vol) in 0.05 M Tris HCl buffer containing 100 mM NaCl.
(§3) Incubations are carried out at 48° C. and contain 0.4 ml of tissue sample, 0.5 nM ^3H-YM 09151-2 and the compound of interest in a total incubation of 1.0 ml. Nonspecific binding is defined as that binding found in the presence of […] spiperone; without further additions, nonspecific binding is less than 20% of total binding. The binding characteristics of representative compounds of the invention for D2 and D3 receptor subtypes are shown in Table 2 for rat striatal homogenates.

D2 receptors = molecular target: T2, D2 receptors (Chlorocebus aethiops, UniProt P52702); experiment: D2 receptor binding assay (3H-YM 09151-2 displacement); parameters: species or system African Green monkey
T2 construct: expressed in transfected cells; host or cells: COS cells
T2 sequence (P52702 whole entry): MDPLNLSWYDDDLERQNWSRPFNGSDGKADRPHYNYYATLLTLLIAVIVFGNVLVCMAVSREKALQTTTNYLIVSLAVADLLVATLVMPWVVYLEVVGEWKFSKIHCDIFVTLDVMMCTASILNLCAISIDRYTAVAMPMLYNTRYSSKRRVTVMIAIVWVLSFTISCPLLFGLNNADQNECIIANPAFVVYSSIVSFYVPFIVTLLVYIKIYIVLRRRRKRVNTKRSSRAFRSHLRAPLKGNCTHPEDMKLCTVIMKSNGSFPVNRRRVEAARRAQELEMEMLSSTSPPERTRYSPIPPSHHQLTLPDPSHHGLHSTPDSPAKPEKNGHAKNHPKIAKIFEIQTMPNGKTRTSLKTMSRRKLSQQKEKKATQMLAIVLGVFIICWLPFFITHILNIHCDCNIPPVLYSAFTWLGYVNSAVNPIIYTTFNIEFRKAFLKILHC
Experimental: as §1, §2, §3

In the case of O=C(NCCCCN1CCN(c2cccc(Cl)c2Cl)CC1)c1ccc2sc3ccccc3c2c1 [Compound 1, N-(1-{4-[4-(2,3-Dichlorophenyl)piperazin-1-yl]}butyl)-2-dibenzothiophenecarboxamide hydrochloride], the Ki (D3 receptors) is reported as 3.5 nM and the Ki (D2 receptors) is reported as 285 nM.

Compound O=C(NCCCCN1CCN(c2cccc3ccccc23)CC1)c1ccc2sc3ccccc3c2c1 (as salt: hydrochloride) [Compound 2, N-(1-{4-[4-(1-Naphthyl)piperazin-1-yl]}butyl)-2-dibenzothiophenecarboxamide hydrochloride] has a melting point of 225 to 228 °C.

O=C(NCCCCN1CCN(c2cccc3ccccc23)CC1)c1ccc2sc3ccccc3c2c1 [Compound 2, N-(1-{4-[4-(1-Naphthyl)piperazin-1-yl]}butyl)-2-dibenzothiophenecarboxamide hydrochloride] showed a Ki (D3 receptors; COS cells containing recombinantly produced D3 receptors, 0.5 nM 3H-YM 09151-2, nonspecific binding with 1 mM spiperone, read-out: D3 Ki) of 5 nM and a Ki (D2 receptors; COS cells containing recombinantly produced D2 receptors, 0.5 nM 3H-YM 09151-2, nonspecific binding with 1 mM spiperone, read-out: D2 Ki) of 242 nM.
